Test results from ChEMBL document CHEMBL1201862, “PubChem BioAssay data set” (2004).
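The compound was tested at five concentrations on cells cultured in 96-well plates, with a 48-hour exposure period. Here, GI50 denotes the concentration required for 50% inhibition of growth.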 Active and inactive are the calls of the source. Rule as the data show it: active = GI50 up to about 1.1 µM and inactive = higher.

Experiments:
Assay in all cases: NCI-60 cell line screen, 48 h
[1] = test system: A498
[2] = test system: SN12C
[3] = test system: SK-OV-3
[4] = test system: TK-10
[5] = test system: OVCAR-8
[6] = test system: UACC-62
[7] = test system: RXF 393
[8] = test system: CCRF-CEM
[9] = test system: RPMI-8226
[10] = test system: UO-31
[11] = test system: ACHN
[12] = test system: HT-29
[13] = test system: MCF7
[14] = test system: SF-295
[15] = test system: Hs-578T
[16] = test system: NCI-H522
[17] = test system: HCT-116
[18] = test system: SNB-19
[19] = test system: NCI-H23
[20] = test system: MDA-MB-435

SMILES	GI50 [1]	GI50 [2]	GI50 [3]	GI50 [4]	GI50 [5]	GI50 [6]	GI50 [7]	GI50 [8]	GI50 [9]	GI50 [10]	GI50 [11]	GI50 [12]	GI50 [13]	GI50 [14]	GI50 [15]	GI50 [16]	GI50 [17]	GI50 [18]	GI50 [19]	GI50 [20]
COc1cc2c(cc1O)NC(=O)[C@@H]1CCCN1C2=O	> 100 µM (inactive)	> 100 µM (inactive)	> 100 µM (inactive)	> 100 µM (inactive)	> 100 µM (inactive)	> 100 µM (inactive)	> 100 µM (inactive)	> 100 µM (inactive)	> 100 µM (inactive)	> 100 µM (inactive)	> 100 µM (inactive)	> 100 µM (inactive)	> 100 µM (inactive)	> 100 µM (inactive)	24 µM (inactive)	> 100 µM (inactive)	> 100 µM (inactive)	> 100 µM (inactive)	> 100 µM (inactive)	> 100 µM (inactive)
COc1cc(C)c(S(=O)(=O)N(CCCN)OCCCN)c(C)c1C	39.4 µM (inactive)	57 µM (inactive)	> 100 µM (inactive)	34 µM (inactive)	38.5 µM (inactive)	48.1 µM (inactive)	15.6 µM (inactive)	41.2 µM (inactive)	17.5 µM (inactive)	41.5 µM (inactive)	49.4 µM (inactive)	46.5 µM (inactive)	19.4 µM (inactive)	31.3 µM (inactive)	23 µM (inactive)	22 µM (inactive)	29.6 µM (inactive)	42 µM (inactive)	31.1 µM (inactive)	38.9 µM (inactive)
O=c1cc(NNc2ccccc2)[nH]c(=S)[nH]1	> 100 µM (inactive)	> 100 µM (inactive)	> 100 µM (inactive)	24.9 µM (inactive)	36.1 µM (inactive)	63.1 µM (inactive)	50.2 µM (inactive)	29.8 µM (inactive)	10.5 µM (inactive)	> 100 µM (inactive)	43.7 µM (inactive)	37.8 µM (inactive)	25.9 µM (inactive)	> 100 µM (inactive)	> 100 µM (inactive)	17.5 µM (inactive)	23.2 µM (inactive)	> 100 µM (inactive)	47.1 µM (inactive)	49.5 µM (inactive)
C=CCn1c(-c2ccc(/N=N/Nc3ccc(-c4n[nH]c(=S)n4CC=C)cc3)cc2)n[nH]c1=S	> 100 µM (inactive)	3.49 µM (inactive)	11.7 µM (inactive)	11.8 µM (inactive)	2.8 µM (inactive)	–	13.9 µM (inactive)	3.13 µM (inactive)	1.76 µM (inactive)	1.83 µM (inactive)	2.21 µM (inactive)	–	3.69 µM (inactive)	3.39 µM (inactive)	5.15 µM (inactive)	2.92 µM (inactive)	–	27 µM (inactive)	3.22 µM (inactive)	3.33 µM (inactive)
COc1ccc(CNC(=O)[C@H](Cc2ccc(O)cn2)NC(C)=O)cc1	> 100 µM (inactive)	> 100 µM (inactive)	> 100 µM (inactive)	> 100 µM (inactive)	–	> 100 µM (inactive)	> 100 µM (inactive)	> 100 µM (inactive)	64.9 µM (inactive)	> 100 µM (inactive)	> 100 µM (inactive)	> 100 µM (inactive)	> 100 µM (inactive)	> 100 µM (inactive)	> 100 µM (inactive)	> 100 µM (inactive)	89.3 µM (inactive)	> 100 µM (inactive)	> 100 µM (inactive)	> 100 µM (inactive)
S=C(/N=c1/sc(Nc2ccccc2)nc2sc3c(c12)CCCC3)Nc1ccccc1	> 62.5 µM (inactive)	> 62.5 µM (inactive)	> 62.5 µM (inactive)	> 62.5 µM (inactive)	–	> 62.5 µM (inactive)	> 62.5 µM (inactive)	> 62.5 µM (inactive)	62.2 µM (inactive)	> 62.5 µM (inactive)	> 62.5 µM (inactive)	> 62.5 µM (inactive)	> 62.5 µM (inactive)	–	> 62.5 µM (inactive)	> 62.5 µM (inactive)	> 62.5 µM (inactive)	> 62.5 µM (inactive)	> 62.5 µM (inactive)	> 62.5 µM (inactive)
COCC(C#N)NC1CC(OC2CC(O)(C(=O)CO)Cc3c(O)c4c(c(O)c32)C(=O)c2c(OC)cccc2C4=O)OC(C)C1O (centres undefined)	0.0383 µM (active)	0.0422 µM (active)	0.0869 µM (active)	0.19 µM (active)	0.0676 µM (active)	0.0574 µM (active)	0.177 µM (active)	0.0202 µM (active)	0.0282 µM (active)	0.442 µM (active)	0.0581 µM (active)	0.151 µM (active)	< 0.01 µM (active)	0.0966 µM (active)	0.161 µM (active)	0.0321 µM (active)	0.0385 µM (active)	0.0427 µM (active)	0.0592 µM (active)	0.108 µM (active)
